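Test compounds were applied to cells in 96-well plates for 48 hours at 5 doses. GI50: concentration for 50% inhibition of growth.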 The source made the active and inactive calls. Rule as the data show it: active = GI50 up to about 1.1 µM and inactive = higher.
Columns and labels:
Assay in all cases: inhibition of tumour cell growth, NCI panel, 48 h
[1] = tested on: 786-0
[2] = tested on: ACHN
[3] = tested on: BT-549
[4] = tested on: HCT-15
[5] = tested on: Hs-578T
[6] = tested on: IGROV-1
[7] = tested on: M14
[8] = tested on: MDA-MB-231
[9] = tested on: MDA-MB-435
[10] = tested on: MOLT-4
[11] = tested on: Malme-3M
[12] = tested on: NCI-H460
[13] = tested on: NCI-H522
[14] = tested on: RXF 393
[15] = tested on: SK-MEL-5
[16] = tested on: SNB-19
[17] = tested on: T47D
[18] = tested on: UACC-257
[19] = tested on: A498

| SMILES | GI50 [1] | GI50 [2] | GI50 [3] | GI50 [4] | GI50 [5] | GI50 [6] | GI50 [7] | GI50 [8] | GI50 [9] | GI50 [10] | GI50 [11] | GI50 [12] | GI50 [13] | GI50 [14] | GI50 [15] | GI50 [16] | GI50 [17] | GI50 [18] | GI50 [19] |
| --- | --- | --- | --- | --- | --- | --- | --- | --- | --- | --- | --- | --- | --- | --- | --- | --- | --- | --- | --- |
| COc1ccc(-c2cc(=O)c3c(O)cc(C)cc3o2)cc1OC | > 100 µM (inactive) | > 100 µM (inactive) | > 100 µM (inactive) | > 100 µM | > 100 µM (inactive) | > 100 µM (inactive) | > 100 µM (inactive) | > 100 µM (inactive) | > 100 µM (inactive) | > 100 µM (inactive) | > 100 µM (inactive) | > 100 µM (inactive) | > 100 µM (inactive) | > 100 µM (inactive) | > 100 µM (inactive) | > 100 µM (inactive) | > 100 µM (inactive) | > 100 µM (inactive) |  |
| CO[C@]12C#CC=CC#C[C@@H](O)[C@]3(CCC1)O[C@@]23c1cccc(O)c1 | > 100 µM (inactive) | > 100 µM (inactive) | > 100 µM (inactive) | > 100 µM | > 100 µM (inactive) |  | > 100 µM (inactive) | > 100 µM (inactive) | > 100 µM (inactive) | 54.8 µM (inactive) |  | > 100 µM (inactive) |  | > 100 µM (inactive) |  | 51.3 µM (inactive) | > 100 µM (inactive) | > 100 µM (inactive) | > 100 µM (inactive) |
| CC1=CC(=O)/C(=C/n2c(=S)[nH]c3ccccc32)C(=O)O1 | > 100 µM (inactive) | > 100 µM (inactive) | > 100 µM (inactive) | > 100 µM | 72.8 µM (inactive) | > 100 µM (inactive) | > 100 µM (inactive) | > 100 µM (inactive) | > 100 µM (inactive) | > 100 µM (inactive) |  | > 100 µM (inactive) | > 100 µM (inactive) | 51.5 µM (inactive) |  | > 100 µM (inactive) | > 100 µM (inactive) | > 100 µM (inactive) | > 100 µM (inactive) |
| CCCC(C)NC(=O)c1ccc(N(C)Cc2cnc3nc(N)nc(N)c3n2)cc1 (stereo unspecified) | 10.5 µM (inactive) | 35.2 µM (inactive) | 15.5 µM (inactive) | 26.4 µM | 16.2 µM (inactive) | 17.7 µM (inactive) | 11.5 µM (inactive) | 27.5 µM (inactive) | 11.7 µM (inactive) | 33.2 µM (inactive) | 16.9 µM (inactive) | 21.5 µM (inactive) |  | 26.2 µM (inactive) | 10.1 µM (inactive) | 22.6 µM (inactive) | 24 µM (inactive) | 15.9 µM (inactive) | 69 µM (inactive) |
| O=S(=O)([C-]([I+]c1ccccc1)S(=O)(=O)C(F)(F)C(F)(F)C(F)(F)C(F)(F)F)C(F)(F)C(F)(F)C(F)(F)C(F)(F)F | 14.9 µM (inactive) | 6.49 µM (inactive) | 15.2 µM (inactive) | 15.2 µM | 20.1 µM (inactive) | 19.1 µM (inactive) | 13.6 µM (inactive) | 24.1 µM (inactive) | 19.3 µM (inactive) | 3.51 µM (inactive) | 11 µM (inactive) | 17.7 µM (inactive) | 2.49 µM (inactive) |  | 14.4 µM (inactive) | 15.2 µM (inactive) | 11.1 µM (inactive) | 17.6 µM (inactive) | 14.8 µM (inactive) |
| Cc1ccc2c(c1)nc(N)n[n+]2[O-] | > 100 µM (inactive) | > 100 µM (inactive) | > 100 µM (inactive) | > 100 µM | > 100 µM (inactive) | > 100 µM (inactive) | > 100 µM (inactive) | > 100 µM (inactive) | > 100 µM (inactive) | > 100 µM (inactive) |  | > 100 µM (inactive) | > 100 µM (inactive) |  | > 100 µM (inactive) | > 100 µM (inactive) | > 100 µM (inactive) | > 100 µM (inactive) | > 100 µM (inactive) |
| NC(=O)NC(=O)c1cccc(NC(=O)CI)c1 | < 0.01 µM (active) | < 0.017 µM (active) | 0.0473 µM (active) | < 0.0159 µM | 0.0398 µM (active) | 0.0483 µM (active) |  | 0.0622 µM (active) | < 0.01 µM (active) | < 0.01 µM (active) |  | 0.0485 µM (active) | < 0.01 µM (active) | 0.0513 µM (active) | < 0.0105 µM (active) | 0.646 µM (active) | 1.66 µM (inactive) | < 0.0252 µM (active) | 0.231 µM (active) |
| NCCO/C=C/C(N)C(=O)O (stereo unspecified) [AMINOETHOXYVINYLGLYCINE] | > 100 µM (inactive) | > 100 µM (inactive) | > 100 µM (inactive) | > 100 µM | > 100 µM (inactive) | > 100 µM (inactive) | > 100 µM (inactive) | > 100 µM (inactive) | > 100 µM (inactive) |  |  | > 100 µM (inactive) | 10.1 µM (inactive) | > 100 µM (inactive) | > 100 µM (inactive) | > 100 µM (inactive) | > 100 µM (inactive) | > 100 µM (inactive) |  |
| COCC1OC(Sc2ccccc2)C(O)C(OC)C1OC (stereo unspecified) | > 100 µM (inactive) | > 100 µM (inactive) | > 100 µM (inactive) | > 100 µM | > 100 µM (inactive) | > 100 µM (inactive) | > 100 µM (inactive) | > 100 µM (inactive) | > 100 µM (inactive) | > 100 µM (inactive) | > 100 µM (inactive) | > 100 µM (inactive) | > 100 µM (inactive) | > 100 µM (inactive) | > 100 µM (inactive) | > 100 µM (inactive) | > 100 µM (inactive) | > 100 µM (inactive) |  |
| COc1ccc([N+](=O)[O-])c2c(NCCCN(C)C)c(C)c(C)nc12 | > 100 µM (inactive) | > 100 µM (inactive) | 56.6 µM (inactive) | 22.4 µM | > 100 µM (inactive) | 36.6 µM (inactive) | > 100 µM (inactive) | 57.5 µM (inactive) | > 100 µM (inactive) | > 100 µM (inactive) | 45.1 µM (inactive) | 34.4 µM (inactive) | 27.9 µM (inactive) |  | 46.8 µM (inactive) | 44.8 µM (inactive) | 77.3 µM (inactive) | > 100 µM (inactive) | > 100 µM (inactive) |
| CC1(C)C(=O)C2(C#N)CCC1C2 (stereo unspecified) | > 100 µM (inactive) | > 100 µM (inactive) | > 100 µM (inactive) | > 100 µM | > 100 µM (inactive) | > 100 µM (inactive) | > 100 µM (inactive) | > 100 µM (inactive) | > 100 µM (inactive) | > 100 µM (inactive) | > 100 µM (inactive) | > 100 µM (inactive) |  | > 100 µM (inactive) | > 100 µM (inactive) | > 100 µM (inactive) | > 100 µM (inactive) | > 100 µM (inactive) | > 100 µM (inactive) |
| Cc1cc(C)n(-c2nc(C)c(CCO)c(=O)[nH]2)n1 | > 100 µM (inactive) | > 100 µM (inactive) | > 100 µM (inactive) | > 100 µM | > 100 µM (inactive) | > 100 µM (inactive) | > 100 µM (inactive) | > 100 µM (inactive) | > 100 µM (inactive) | > 100 µM (inactive) | > 100 µM (inactive) | > 100 µM (inactive) | > 100 µM (inactive) | > 100 µM (inactive) | > 100 µM (inactive) | > 100 µM (inactive) | > 100 µM (inactive) | > 100 µM (inactive) |  |
| COC(O)C(=O)c1c2c(cc3c1CCC3)CCC2 (stereo unspecified) | > 100 µM (inactive) | > 100 µM (inactive) | > 100 µM (inactive) | > 100 µM | > 100 µM (inactive) | > 100 µM (inactive) | > 100 µM (inactive) | > 100 µM (inactive) | > 100 µM (inactive) | > 100 µM (inactive) | > 100 µM (inactive) | > 100 µM (inactive) | > 100 µM (inactive) |  | > 100 µM (inactive) | > 100 µM (inactive) | > 100 µM (inactive) | > 100 µM (inactive) | > 100 µM (inactive) |
| CN(C)CCNc1nc(-c2ccc3ccccc3c2)nc2[nH]cnc12 | 10 µM (inactive) | 2.73 µM (inactive) | 11.2 µM (inactive) | 5.82 µM | 5.18 µM (inactive) | 2.31 µM (inactive) | 11.4 µM (inactive) | 11.2 µM (inactive) | 11 µM (inactive) | 3.55 µM (inactive) | 4.51 µM (inactive) | 3.66 µM (inactive) | 1.12 µM (active) | 11.6 µM (inactive) | 10.7 µM (inactive) | 14 µM (inactive) | 12.5 µM (inactive) | 6.9 µM (inactive) |  |
| O=[N+]([O-])/C(C(Cl)=C(Cl)Cl)=C(\Nc1cccc2cccnc12)SCc1ccccc1 | 21.6 µM (inactive) | 23.3 µM (inactive) | 16.9 µM (inactive) | 19.9 µM | < 0.01 µM (active) |  | 27.5 µM (inactive) | 27.3 µM (inactive) | 21 µM (inactive) | 2.21 µM (inactive) | 15.3 µM (inactive) | 21 µM (inactive) |  |  |  | 16.7 µM (inactive) | 17.7 µM (inactive) | 21.5 µM (inactive) | 26.7 µM (inactive) |
| Nc1ccccc1C(=O)CCc1c[nH]c2ccccc12 | 46.2 µM (inactive) | 53.7 µM (inactive) | 19.3 µM (inactive) | 93.3 µM | 24.2 µM (inactive) | 35.7 µM (inactive) | > 100 µM (inactive) | > 100 µM (inactive) | > 100 µM (inactive) | > 100 µM (inactive) | > 100 µM (inactive) | > 100 µM (inactive) | > 100 µM (inactive) |  |  | 92.3 µM (inactive) | 5.53 µM (inactive) | > 100 µM (inactive) | > 100 µM (inactive) |
